We go through 1 molecule from patent publication US20250186562A1, “TARGET SUBSTRATE PROTEIN DEGRADATION PLATFORM” (The Regents of the University of California, priority 2022, published 2025).

The assay has as its target ERRα protein (Homo sapiens (Human), UniProt P11474). The assay can be described thus: ERRα protein level in Hela cells by Western blot. In kind it is cell-based. Conditions: Hela cells treated overnight at 100 nM, 33.3 nM, and 11.1 nM; Western blot of whole cell lysates. On the procedure:
In this experiment, Hela cells were treated overnight at a concentration of 100 nM, 33.3 nM, and 11.1 nM with the above peptidomimetic compound. The ERRα protein was detected by Western blot from whole cell lysates. Glyceraldehyde 3-phosphate dehydrogenase (GAPDH) was blotted as loading control.
A general note: Immunoblotting shows a protein as a band on a membrane.

Sequence of ERRα protein (P11474 whole entry): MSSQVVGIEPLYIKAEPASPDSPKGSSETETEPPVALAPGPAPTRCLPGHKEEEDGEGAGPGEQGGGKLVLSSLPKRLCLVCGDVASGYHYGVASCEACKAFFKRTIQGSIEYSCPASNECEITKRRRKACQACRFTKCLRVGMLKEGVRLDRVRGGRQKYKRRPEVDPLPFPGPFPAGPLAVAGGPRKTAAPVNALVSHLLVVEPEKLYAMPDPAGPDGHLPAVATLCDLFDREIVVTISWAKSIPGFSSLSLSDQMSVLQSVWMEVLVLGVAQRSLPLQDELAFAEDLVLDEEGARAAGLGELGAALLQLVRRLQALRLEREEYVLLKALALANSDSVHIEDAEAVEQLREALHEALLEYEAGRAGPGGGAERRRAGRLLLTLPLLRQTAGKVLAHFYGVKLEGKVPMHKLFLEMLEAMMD

As for `COc1cc(/C=C2\SC(=O)N(Cc3cn(CCCNC(=O)[C@H](Cc4ccccc4)NC(=O)[C@H](Cc4ccc(O)c([N+](=O)[O-])c4)NC(=O)[C@@H](N)CCCNC(=N)NCC(F)(F)F)nn3)C2=O)ccc1Oc1ccc(C#N)cc1C(F)(F)F` [above peptidomimetic compound], the “levels of the ERRα protein in cells” value is “reduction of levels of the ERRα protein”.
